# Measurements from PMC12281424, “A Rac-specific competitive inhibitor of guanine nucleotide binding reduces metastasis in triple-negative breast cancer” (Cell Reports Medicine, 2025).
# Key:
# MEK1(h) = MEK1(h) (Homo sapiens, UniProt Q02750); test: Kinase Profiler; assay type: biochemical
# Experimental: (§1) The kinase profiler was performed by the company Eurofins (Discovery, Panlab and Cerep).
# [1] = molecular target: ATPase, Na+/K+, Heart, Pig (Sus scrofa, UniProt P05024); test: Safety screen; assay type: biochemical
# Experimental: (§2) Blood cell counts, kinase profiler, safety screen, bacterial cytotoxicity, Ames, micronucleus assays were performed by the company Eurofins (France). The kinase profiler was performed by the company Eurofins (Discovery, Panlab and Cerep).
# ALK1(h) = ALK1(h) (Homo sapiens, UniProt P37023); test: Kinase Profiler; assay type: biochemical
# Experimental: as §1
# Adrenergic α2B = Adrenergic α2B (Homo sapiens, UniProt P18089); test: Safety screen; assay type: binding
# Experimental: (§3) Blood cell counts, kinase profiler, safety screen, bacterial cytotoxicity, Ames, micronucleus assays were performed by the company Eurofins (France).
# JNK3(h) = JNK3(h) (Homo sapiens, UniProt P53779); test: Kinase Profiler; assay type: biochemical
# Experimental: as §1
# [2] = molecular target: PI3K (p110a(E545K)/p85a)(m) (Mus musculus, UniProt P42337, E545K); test: Kinase Profiler; assay type: biochemical
# Experimental: as §2
# STK32C(h) = STK32C(h) (Homo sapiens, UniProt Q86UX6); test: Kinase Profiler; assay type: biochemical
# Experimental: as §1
# Tec(h) activated = Tec(h) activated (Homo sapiens, UniProt P42680); test: Kinase Profiler; assay type: biochemical
# Experimental: as §2
# ErbB4(h) = ErbB4(h) (Homo sapiens, UniProt Q15303); test: Kinase Profiler; assay type: biochemical
# Experimental: as §1
# SIK(h) = SIK(h) (Homo sapiens, UniProt P57059); test: Kinase Profiler; assay type: biochemical
# Experimental: as §1
# TAO2(h) = TAO2(h) (Homo sapiens, UniProt Q9UL54); test: Kinase Profiler; assay type: biochemical
# Experimental: as §2
# Abl (Q252H) (h) = Abl (Q252H) (h) (Homo sapiens, UniProt P00519, Q252H); test: Kinase Profiler; assay type: biochemical
# Experimental: as §1
# Monoamine Oxidase MAO-B = Monoamine Oxidase MAO-B (Homo sapiens, UniProt P27338); test: Safety screen; assay type: biochemical
# Experimental: as §3
# [3] = tested on: membrane receptors, ion channel, and kinases; test: In vitro binding assays on a panel of potential targets
# Experimental: as §2
# CaMKIIγ(h) = CaMKIIγ(h) (Homo sapiens, UniProt Q13555); test: Kinase Profiler; assay type: biochemical
# Experimental: as §1
# NEK6(h) = NEK6(h) (Homo sapiens, UniProt Q9HC98); test: Kinase Profiler; assay type: biochemical
# Experimental: as §1
# TA1535 = test: Ames fluctuation test (5th group); assay type: cell-based
# Text: Data S3. Ames-fluctuation assay-A41.
# Test Concentration Count Positive Significance Fisher Exact Test
# PDGFRα(V561D)(h) = PDGFRα(V561D)(h) (Homo sapiens, UniProt P16234, V561D); test: Kinase Profiler; assay type: biochemical
# Experimental: as §1
# CDK18/cyclinY(h) = CDK18/cyclinY(h) (Homo sapiens, UniProt Q07002); test: Kinase Profiler; assay type: biochemical
# Experimental: as §1
# DYRK1B(h) = DYRK1B(h) (Homo sapiens, UniProt Q9Y463); test: Kinase Profiler; assay type: biochemical
# Chain of DYRK1B(h) (Q9Y463 whole entry): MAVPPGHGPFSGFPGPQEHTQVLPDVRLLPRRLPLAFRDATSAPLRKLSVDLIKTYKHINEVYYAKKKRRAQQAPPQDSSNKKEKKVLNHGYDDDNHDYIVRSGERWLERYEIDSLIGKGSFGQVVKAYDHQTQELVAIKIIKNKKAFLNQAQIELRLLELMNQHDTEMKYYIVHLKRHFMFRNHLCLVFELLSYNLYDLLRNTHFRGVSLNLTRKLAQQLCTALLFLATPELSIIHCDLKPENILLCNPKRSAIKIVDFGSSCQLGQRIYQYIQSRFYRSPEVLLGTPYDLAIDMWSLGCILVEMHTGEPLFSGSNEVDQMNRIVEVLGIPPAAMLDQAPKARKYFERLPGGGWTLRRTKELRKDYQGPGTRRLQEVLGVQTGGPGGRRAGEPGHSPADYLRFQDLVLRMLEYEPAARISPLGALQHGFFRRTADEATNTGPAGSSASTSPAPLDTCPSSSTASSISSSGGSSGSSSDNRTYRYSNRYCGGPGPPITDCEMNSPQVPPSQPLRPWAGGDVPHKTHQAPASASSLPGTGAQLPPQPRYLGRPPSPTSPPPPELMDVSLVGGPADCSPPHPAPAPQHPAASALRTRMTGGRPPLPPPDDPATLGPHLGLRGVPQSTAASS
# Experimental: as §1
# Chain of MEK1(h) (Q02750 whole entry): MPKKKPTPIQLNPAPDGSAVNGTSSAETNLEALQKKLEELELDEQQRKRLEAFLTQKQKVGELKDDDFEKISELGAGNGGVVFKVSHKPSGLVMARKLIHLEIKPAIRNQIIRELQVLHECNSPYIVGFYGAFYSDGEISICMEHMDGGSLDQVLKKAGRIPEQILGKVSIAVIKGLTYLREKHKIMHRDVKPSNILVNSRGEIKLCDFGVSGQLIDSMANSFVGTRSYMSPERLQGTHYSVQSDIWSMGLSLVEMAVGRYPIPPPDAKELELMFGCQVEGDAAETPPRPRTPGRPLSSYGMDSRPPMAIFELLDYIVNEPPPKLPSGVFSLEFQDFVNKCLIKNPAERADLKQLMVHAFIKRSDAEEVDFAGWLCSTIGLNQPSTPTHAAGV
# Chain of STK32C(h) (Q86UX6 whole entry): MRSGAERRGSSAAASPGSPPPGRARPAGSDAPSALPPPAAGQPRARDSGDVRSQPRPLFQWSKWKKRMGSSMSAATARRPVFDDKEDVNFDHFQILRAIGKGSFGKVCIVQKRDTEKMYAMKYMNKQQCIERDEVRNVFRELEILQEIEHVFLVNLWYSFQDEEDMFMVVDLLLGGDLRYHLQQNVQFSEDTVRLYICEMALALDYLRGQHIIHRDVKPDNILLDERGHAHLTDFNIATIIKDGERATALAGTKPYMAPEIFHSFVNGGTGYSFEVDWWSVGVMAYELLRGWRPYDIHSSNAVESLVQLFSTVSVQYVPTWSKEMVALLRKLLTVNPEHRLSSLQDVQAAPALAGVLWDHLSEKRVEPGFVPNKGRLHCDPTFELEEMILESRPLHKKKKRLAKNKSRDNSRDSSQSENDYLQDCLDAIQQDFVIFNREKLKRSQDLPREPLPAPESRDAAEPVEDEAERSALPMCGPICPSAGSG
# Chain of ALK1(h) (P37023 22-503): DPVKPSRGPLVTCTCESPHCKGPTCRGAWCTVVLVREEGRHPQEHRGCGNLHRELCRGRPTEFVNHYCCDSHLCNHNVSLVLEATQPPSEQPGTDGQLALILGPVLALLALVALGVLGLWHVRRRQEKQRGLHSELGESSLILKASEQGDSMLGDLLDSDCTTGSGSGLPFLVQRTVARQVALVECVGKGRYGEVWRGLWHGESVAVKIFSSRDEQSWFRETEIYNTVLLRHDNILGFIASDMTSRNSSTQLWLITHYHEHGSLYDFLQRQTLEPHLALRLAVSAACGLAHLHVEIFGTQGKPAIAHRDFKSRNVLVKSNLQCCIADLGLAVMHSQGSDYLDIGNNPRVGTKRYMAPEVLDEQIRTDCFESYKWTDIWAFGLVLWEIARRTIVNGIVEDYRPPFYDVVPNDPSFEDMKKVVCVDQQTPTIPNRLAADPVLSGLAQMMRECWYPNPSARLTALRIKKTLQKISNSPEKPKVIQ
# Chain of NEK6(h) (Q9HC98 whole entry): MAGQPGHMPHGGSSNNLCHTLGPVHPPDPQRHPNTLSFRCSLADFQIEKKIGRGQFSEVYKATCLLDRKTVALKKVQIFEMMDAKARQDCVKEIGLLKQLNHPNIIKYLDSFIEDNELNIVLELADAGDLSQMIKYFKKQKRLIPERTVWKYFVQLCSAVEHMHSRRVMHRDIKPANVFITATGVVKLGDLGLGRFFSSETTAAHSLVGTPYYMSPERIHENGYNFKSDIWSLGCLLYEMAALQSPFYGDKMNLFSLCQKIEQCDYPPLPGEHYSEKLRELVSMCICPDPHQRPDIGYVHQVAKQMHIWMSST
# Chain of ErbB4(h) (Q15303 26-1308): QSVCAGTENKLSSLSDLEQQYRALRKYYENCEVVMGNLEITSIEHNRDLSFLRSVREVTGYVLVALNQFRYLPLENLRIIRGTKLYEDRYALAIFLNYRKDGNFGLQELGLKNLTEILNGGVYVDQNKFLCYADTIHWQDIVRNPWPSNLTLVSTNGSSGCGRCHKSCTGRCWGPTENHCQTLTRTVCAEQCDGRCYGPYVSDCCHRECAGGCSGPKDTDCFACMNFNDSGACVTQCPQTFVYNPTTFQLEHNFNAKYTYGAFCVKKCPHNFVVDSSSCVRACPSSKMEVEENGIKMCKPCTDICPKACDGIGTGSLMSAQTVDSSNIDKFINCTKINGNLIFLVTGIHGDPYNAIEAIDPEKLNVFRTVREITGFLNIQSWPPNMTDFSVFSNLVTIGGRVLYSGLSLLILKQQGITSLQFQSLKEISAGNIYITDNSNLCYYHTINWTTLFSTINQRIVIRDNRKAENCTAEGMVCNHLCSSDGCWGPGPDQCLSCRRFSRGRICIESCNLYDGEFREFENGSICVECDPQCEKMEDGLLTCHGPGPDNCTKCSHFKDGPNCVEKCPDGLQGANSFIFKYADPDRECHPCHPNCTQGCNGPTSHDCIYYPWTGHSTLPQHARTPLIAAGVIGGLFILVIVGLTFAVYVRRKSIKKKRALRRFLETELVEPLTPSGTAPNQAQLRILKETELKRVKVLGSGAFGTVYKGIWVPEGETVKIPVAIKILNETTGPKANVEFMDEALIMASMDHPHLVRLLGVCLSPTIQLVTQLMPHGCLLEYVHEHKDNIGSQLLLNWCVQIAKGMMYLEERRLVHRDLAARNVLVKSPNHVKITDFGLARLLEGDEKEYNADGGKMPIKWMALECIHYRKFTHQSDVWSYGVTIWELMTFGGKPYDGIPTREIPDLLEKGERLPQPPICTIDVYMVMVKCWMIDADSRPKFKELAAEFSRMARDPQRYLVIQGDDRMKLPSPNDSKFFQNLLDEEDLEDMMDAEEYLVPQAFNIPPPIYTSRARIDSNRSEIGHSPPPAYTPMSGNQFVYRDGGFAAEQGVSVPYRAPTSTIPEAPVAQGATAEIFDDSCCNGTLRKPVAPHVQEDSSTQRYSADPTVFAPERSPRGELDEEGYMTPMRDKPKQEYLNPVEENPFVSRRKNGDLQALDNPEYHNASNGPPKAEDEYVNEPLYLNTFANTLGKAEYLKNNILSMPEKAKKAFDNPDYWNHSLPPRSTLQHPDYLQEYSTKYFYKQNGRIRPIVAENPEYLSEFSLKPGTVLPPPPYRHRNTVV
# Chain of Monoamine Oxidase MAO-B (P27338 whole entry): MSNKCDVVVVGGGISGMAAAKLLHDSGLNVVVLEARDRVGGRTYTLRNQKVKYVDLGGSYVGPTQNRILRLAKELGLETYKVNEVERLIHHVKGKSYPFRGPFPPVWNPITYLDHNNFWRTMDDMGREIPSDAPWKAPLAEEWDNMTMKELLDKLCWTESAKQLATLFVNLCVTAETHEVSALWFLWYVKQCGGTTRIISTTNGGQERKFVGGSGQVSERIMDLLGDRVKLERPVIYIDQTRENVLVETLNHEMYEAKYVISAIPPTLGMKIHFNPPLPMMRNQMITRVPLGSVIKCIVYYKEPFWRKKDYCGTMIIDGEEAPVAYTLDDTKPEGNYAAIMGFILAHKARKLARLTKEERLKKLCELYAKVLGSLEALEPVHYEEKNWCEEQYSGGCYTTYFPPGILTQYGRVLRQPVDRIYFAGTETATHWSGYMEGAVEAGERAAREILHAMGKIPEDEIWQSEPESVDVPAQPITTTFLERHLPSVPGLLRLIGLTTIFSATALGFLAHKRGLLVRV
# Chain of Adrenergic α2B (P18089 whole entry): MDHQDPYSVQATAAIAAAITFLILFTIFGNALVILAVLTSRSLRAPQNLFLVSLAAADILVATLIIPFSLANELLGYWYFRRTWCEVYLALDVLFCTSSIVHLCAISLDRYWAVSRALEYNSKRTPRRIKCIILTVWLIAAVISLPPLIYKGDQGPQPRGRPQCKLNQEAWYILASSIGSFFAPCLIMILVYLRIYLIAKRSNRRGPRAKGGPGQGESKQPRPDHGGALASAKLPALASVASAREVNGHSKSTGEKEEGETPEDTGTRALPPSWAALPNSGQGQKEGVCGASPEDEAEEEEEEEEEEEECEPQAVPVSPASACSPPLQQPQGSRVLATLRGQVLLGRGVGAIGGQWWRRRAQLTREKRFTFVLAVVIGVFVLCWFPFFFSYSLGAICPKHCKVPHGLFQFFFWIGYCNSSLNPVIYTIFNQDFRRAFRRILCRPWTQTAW
# Chain of JNK3(h) (P53779 whole entry): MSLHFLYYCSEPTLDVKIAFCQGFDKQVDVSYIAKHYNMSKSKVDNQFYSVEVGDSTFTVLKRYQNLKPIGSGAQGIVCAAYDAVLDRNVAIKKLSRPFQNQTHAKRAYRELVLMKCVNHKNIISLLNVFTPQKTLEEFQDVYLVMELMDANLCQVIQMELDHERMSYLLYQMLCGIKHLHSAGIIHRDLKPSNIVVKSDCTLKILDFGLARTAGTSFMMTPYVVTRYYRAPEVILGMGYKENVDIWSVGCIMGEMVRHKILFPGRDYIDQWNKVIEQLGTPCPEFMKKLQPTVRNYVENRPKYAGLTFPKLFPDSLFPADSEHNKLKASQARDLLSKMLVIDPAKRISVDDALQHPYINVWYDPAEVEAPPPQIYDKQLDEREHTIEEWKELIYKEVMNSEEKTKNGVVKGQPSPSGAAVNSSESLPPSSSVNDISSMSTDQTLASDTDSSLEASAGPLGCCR
compound,measurement,setting,value
COc1ccc(OC)c(NS(=O)(=O)c2ccc(NC(=O)CCSc3ccc(C)cc3)cc2)c1 [Compound A41],Activity(%),MEK1(h),97%
same,% inh.,[1],-15%
same,Activity(%),ALK1(h),102%
same,% inh.,Adrenergic α2B,9%
same,Activity(%),JNK3(h),123%
same,Activity(%),[2],100%
same,Activity(%),STK32C(h),105%
same,Activity(%),Tec(h) activated,112%
same,Activity(%),ErbB4(h),108%
same,Activity(%),SIK(h),144%
same,Activity(%),TAO2(h),108%
same,Activity(%),Abl (Q252H) (h),105%
same,% inh.,Monoamine Oxidase MAO-B,17%
same,off-target binding,[3],only very limited off-target binding
same,Activity(%),CaMKIIγ(h),92%
same,Activity(%),NEK6(h),109%
same,Count Positive (# of wells),"TA1535; - S9, 1.0E-04 M",0
same,Count Positive (# of wells),"TA1535; - S9, 1.0E-05 M",2
same,Count Positive (# of wells),"TA1535; - S9, 5.0E-05 M",0
same,Count Positive (# of wells),"TA1535; - S9, 5.0E-06 M",0
same,Activity(%),PDGFRα(V561D)(h),119%
same,Activity(%),CDK18/cyclinY(h),101%
same,Activity(%),DYRK1B(h),96%
